By IC90 is commonly meant the point of the concentration-response curve where the effect stands at 90%.

These results are taken from patent US20250179066A1, “ZWITTERIONIC ANTIBACTERIAL COMPOUNDS” (Hoffmann-La Roche Inc., priority 2022, published 2025).

Where a name gives a salt, the structure may show the parent alone.

The subject of one experiment is Acinetobacter baumannii ATCC17961. In words: Antimicrobial susceptibility testing: 90% growth inhibitory concentration (IC90) determination. Format: cell-based. The settings on record: 90% growth inhibitory concentration against Acinetobacter baumannii ATCC17961, Iso-Sensitest broth, OD 600 nm over 16 h; read-out: ATCC 17961 IC90. Put shortly:
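OD600 monitored each minute over 16 h at 35±2° C for bacteria (~5×10^5 CFU/mL final) in Iso-Sensitest medium with 10-point twofold compound series (e.g. 10-0.0195 μM final). Concentration giving 90% growth inhibition in log phase reported as IC90.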
With `Cn1c(-c2cn(-c3ccc(N)cc3F)nc2C(F)(F)F)cnc1C(=O)Nc1ccc(C(=O)N2CCN(C(=O)OCC[N+](CCCN)(CCCN)CC(=O)O)CC2)c(Cl)c1` [Example 130, 2-[4-[4-[[5-[1-(4-amino-2-fluoro-phenyl)-3-(trifluoromethyl)pyrazol-4-yl]-1-methyl-imidazole-2-carbonyl]amino]-2-chloro-benzoyl]piperazine-1-carbonyl]oxyethyl-bis(3-aminopropyl)-(carboxymethyl)ammonium; formate], the IC90 worked out at 252 nM.

The same experiment, now with this note: Acinetobacter baumannii, ATCC17961, 16 h, 90% growth inhibitory concentration against Acinetobacter baumannii ATCC17961, Iso-Sensitest broth, OD 600 nm over 16 h; read-out: ATCC 17961 IC90.
For `Cn1c(-c2cn(-c3ccc4[nH]c(CCN)cc4n3)nc2C(F)(F)F)cnc1C(=O)Nc1ccc(C(=O)N2CCN(C(=O)[C@H]3CC[N@+](CC(=O)O)(CC4CNC4)CC3)CC2)c(Cl)c1` [Example 129, cis-2-[4-[4-[4-[[5-[1-[2-(2-aminoethyl)-1H-pyrrolo[3,2-b]pyridin-5-yl]-3-(trifluoromethyl)pyrazol-4-yl]-1-methyl-imidazole-2-carbonyl]amino]-2-chloro-benzoyl]piperazine-1-carbonyl]-1-(azetidin-3-ylmethyl)piperidin-1-ium-1-yl]acetic acid; chloride], the IC90 was determined as 355 nM.
Consider `Cn1c(-c2cn(-c3ccc(O)cc3F)nc2C(F)(F)F)cnc1C(=O)Nc1ccc(C(=O)N2CCN(C(=O)[C@H]3CC[N@@+](CCCN)(CC(=O)O)CC3)CC2)c(F)c1` [Example 131, cis-2-[1-(3-aminopropyl)-4-[4-[2-fluoro-4-[[5-[1-(2-fluoro-4-hydroxy-phenyl)-3-(trifluoromethyl)pyrazol-4-yl]-1-methyl-imidazole-2-carbonyl]amino]benzoyl]piperazine-1-carbonyl]piperidin-1-ium-1-yl]acetic acid;formate], for which the IC90 worked out at 103 nM.
Consider `Cc1cc(NC(=O)c2ncc(-c3cn(-c4ccc5[nH]ccc5n4)nc3C(F)(F)F)n2C)ccc1C(=O)N1CCN(C(=O)[C@H]2CC[N@+](CC(=O)O)(CC3CNC3)CC2)CC1` [Example 132, cis-2-[1-(azetidin-3-ylmethyl)-4-[4-[2-methyl-4-[[1-methyl-5-[1-(1H-pyrrolo[3,2-b]pyridin-5-yl)-3-(trifluoromethyl)pyrazol-4-yl]imidazole-2-carbonyl]amino]benzoyl]piperazine-1-carbonyl]piperidin-1-ium-1-yl]acetic acid. 1:1 2,2,2-trifluoroacetate], for which the IC90 stood at 139 nM.
With `Cn1c(-c2cn(-c3ccc4[nH]ccc4n3)nc2C(F)(F)F)cnc1C(=O)Nc1ccc(C(=O)N2CCN(C(=O)[C@H]3CC[N@+](CC(=O)O)(CC4CNC4)CC3)CC2)c(F)c1` [Example 133, cis-2-[1-(azetidin-3-ylmethyl)-4-[4-[2-fluoro-4-[[1-methyl-5-[1-(1H-pyrrolo[3,2-b]pyridin-5-yl)-3-(trifluoromethyl)pyrazol-4-yl]imidazole-2-carbonyl]amino]benzoyl]piperazine-1-carbonyl]piperidin-1-ium-1-yl]acetic acid. 1:1 2,2,2-trifluoroacetate], the IC90 amounted to 146 nM.
For the compound `Cn1c(-c2cn(-c3ccc4[nH]c(CO)cc4n3)nc2C(F)(F)F)cnc1C(=O)Nc1ccc(C(=O)N2CCC(C(=O)N3CC[N+](CCCN)(CC(=O)O)CC3)CC2)c(Cl)c1` [Example 134, 2-[1-(3-aminopropyl)-4-[1-[2-chloro-4-[[1-methyl-5-[1-(2-methylol-1H-pyrrolo[3,2-b]pyridin-5-yl)-3-(trifluoromethyl)pyrazol-4-yl]imidazole-2-carbonyl]amino]benzoyl]isonipecotoyl]piperazin-1-ium-1-yl]acetic acid. 1:1 2,2,2-trifluoroacetate], the 90% effect concentration (IC90) was determined as 327 nM.
Turning to `Cn1c(-c2cn(-c3ccc(N)cc3F)nc2C(F)(F)F)cnc1C(=O)Nc1ccc(C(=O)N2CCC(C(=O)N3CC[N+](CCCN)(CC(=O)O)CC3)CC2)c(Cl)c1` [Example 135, 2-[4-[1-[4-[[5-[1-(4-amino-2-fluoro-phenyl)-3-(trifluoromethyl)pyrazol-4-yl]-1-methyl-imidazole-2-carbonyl]amino]-2-chloro-benzoyl]isonipecotoyl]-1-(3-aminopropyl)piperazin-1-ium-1-yl]acetic acid. 1:1 2,2,2-trifluoroacetate], the IC90 came to 393 nM.
Same read-out and setting: next, `Cn1c(-c2cn(-c3ccc(O)cc3F)nc2C(F)(F)F)cnc1C(=O)Nc1ccc(C(=O)N2CCN(C(=O)[C@H]3CC[N@+](CC(=O)O)(CC4CNC4)CC3)CC2)c(F)c1` [Example 136, cis-2-[1-(azetidin-3-ylmethyl)-4-[4-[2-fluoro-4-[[5-[1-(2-fluoro-4-hydroxy-phenyl)-3-(trifluoromethyl)pyrazol-4-yl]-1-methyl-imidazole-2-carbonyl]amino]benzoyl]piperazine-1-carbonyl]piperidin-1-ium-1-yl]acetic acid;formate]: 173 nM.
Turning to `Cn1c(-c2cn(-c3ccc(NC[C@H](O)CO)cc3F)nc2C(F)(F)F)cnc1C(=O)Nc1ccc(C(=O)N2CCN(C(=O)[C@H]3CC[N@+](CC(=O)O)(CC4CNC4)CC3)CC2)c(Cl)c1` [Example 137, cis-2-[1-(azetidin-3-ylmethyl)-4-[4-[2-chloro-4-[[5-[1-[4-[[(2S)-2,3-dihydroxypropyl]amino]-2-fluoro-phenyl]-3-(trifluoromethyl)pyrazol-4-yl]-1-methyl-imidazole-2-carbonyl]amino]benzoyl]piperazine-1-carbonyl]piperidin-1-ium-1-yl]acetic acid;formate], the IC90 was 334 nM.
For the compound `Cn1c(-c2cn(-c3ccc4c(ccn4C(C)(C)C(N)=O)n3)nc2C(F)(F)F)cnc1C(=O)Nc1ccc(C(=O)N2CCN(C(=O)[C@H]3CC[N@+](CC(=O)O)(CC4CNC4)CC3)CC2)c(Cl)c1` [Example 138, cis-2-[4-[4-[4-[[5-[1-[1-(2-amino-1,1-dimethyl-2-oxo-ethyl)pyrrolo[3,2-b]pyridin-5-yl]-3-(trifluoromethyl)pyrazol-4-yl]-1-methyl-imidazole-2-carbonyl]amino]-2-chloro-benzoyl]piperazine-1-carbonyl]-1-(azetidin-3-ylmethyl)piperidin-1-ium-1-yl]acetic acid;chloride], the IC90 stood at 408 nM.
With `Cn1c(-c2cn(-c3cc4[nH]c(C(=O)N5CCOCC5)cc4cn3)nc2C(F)(F)F)cnc1C(=O)Nc1ccc(C(=O)N2CCN(C(=O)[C@H]3CC[N@+](CC(=O)O)(CC4CNC4)CC3)CC2)c(Cl)c1` [Example 139, cis-2-[1-(azetidin-3-ylmethyl)-4-[4-[2-chloro-4-[[1-methyl-5-[1-[2-(morpholine-4-carbonyl)-1H-pyrrolo[3,2-c]pyridin-6-yl]-3-(trifluoromethyl)pyrazol-4-yl]imidazole-2-carbonyl]amino]benzoyl]piperazine-1-carbonyl]piperidin-1-ium-1-yl]acetic acid. 1:1 2,2,2-trifluoroacetate], the IC90 was 172 nM.
With `Cn1c(-c2cn(-c3ccc(N)cc3F)nc2C(F)(F)F)cnc1C(=O)Nc1ccc(C(=O)N2CCN(C(=O)N3CC[N+](CC(=O)O)(CC4CNC4)CC3)CC2)c(Cl)c1` [Example 140, 2-[4-[4-[4-[[5-[1-(4-amino-2-fluoro-phenyl)-3-(trifluoromethyl)pyrazol-4-yl]-1-methyl-imidazole-2-carbonyl]amino]-2-chloro-benzoyl]piperazine-1-carbonyl]-1-(azetidin-3-ylmethyl)piperazin-1-ium-1-yl]acetic acid. 1:1 2,2,2-trifluoroacetate], the IC90 is 334 nM.
For the compound `Cn1c(-c2cn(-c3ccc(N)cc3F)nc2C(F)(F)F)cnc1C(=O)Nc1ccc(C(=O)N2CCN(C(=O)N3CC[N+](CCCN)(CC(=O)O)CC3)CC2)c(Cl)c1` [Example 141, 2-[4-[4-[4-[[5-[1-(4-amino-2-fluoro-phenyl)-3-(trifluoromethyl)pyrazol-4-yl]-1-methyl-imidazole-2-carbonyl]amino]-2-chloro-benzoyl]piperazine-1-carbonyl]-1-(3-aminopropyl)piperazin-1-ium-1-yl]acetic acid. 1:1 2,2,2-trifluoroacetate], the IC90 came to 242 nM.
Same read-out and setting: next, `Cn1c(-c2cn(-c3cc4[nH]c(CCN)cc4cn3)nc2C(F)(F)F)cnc1C(=O)Nc1ccc(C(=O)N2CCN(C(=O)[C@H]3CC[N@+](CC(=O)O)(CC4CNC4)CC3)CC2)c(Cl)c1` [Example 142, cis-2-[4-[4-[4-[[5-[1-[2-(2-aminoethyl)-1H-pyrrolo[3,2-c]pyridin-6-yl]-3-(trifluoromethyl)pyrazol-4-yl]-1-methyl-imidazole-2-carbonyl]amino]-2-chloro-benzoyl]piperazine-1-carbonyl]-1-(azetidin-3-ylmethyl)piperidin-1-ium-1-yl]acetic acid;formate]: 69.5 nM.
On the same count and under the same terms, under `CNC(=O)n1ccc2nc(-n3cc(-c4cnc(C(=O)Nc5ccc(C(=O)N6CCN(C(=O)[C@H]7CC[N@+](CC(=O)O)(CC8CNC8)CC7)CC6)c(Cl)c5)n4C)c(C(F)(F)F)n3)ccc21` [Example 143, cis-2-[1-(azetidin-3-ylmethyl)-4-[4-[2-chloro-4-[[1-methyl-5-[1-[1-(methylcarbamoyl)pyrrolo[3,2-b]pyridin-5-yl]-3-(trifluoromethyl)pyrazol-4-yl]imidazole-2-carbonyl]amino]benzoyl]piperazine-1-carbonyl]piperidin-1-ium-1-yl]acetic acid. 1:1 formate] stands 682 nM; under `Cn1c(-c2cn(-c3ccc4[nH]c(CO)cc4n3)nc2C(F)(F)F)cnc1C(=O)Nc1ccc(C(=O)N2CCN(C(=O)N3CC[N+](CC(=O)O)(CC4CNC4)CC3)CC2)c(Cl)c1` [Example 144, 2-[1-(azetidin-3-ylmethyl)-4-[4-[2-chloro-4-[[1-methyl-5-[1-(2-methylol-1H-pyrrolo[3,2-b]pyridin-5-yl)-3-(trifluoromethyl)pyrazol-4-yl]imidazole-2-carbonyl]amino]benzoyl]piperazine-1-carbonyl]piperazin-1-ium-1-yl]acetic acid. 1:1 2,2,2-trifluoroacetate], 269 nM.
Take `Cn1c(-c2cn(-c3ccc4[nH]c(CO)cc4n3)nc2C(F)(F)F)cnc1C(=O)Nc1ccc(C(=O)N2CCN(C(=O)C3CC[N+](CCCN)(CC(=O)O)CC3)CC2)c(Cl)c1` (centres unmarked) [Example 145]: the IC90 worked out at 205 nM.
